Our source for the IC50 values is patent publication US10189841B2, “Purinones as ubiquitin-specific protease 1 inhibitors” (Forma Therapeutics, Inc., priority 2015, dated 2019).

Structures are written as SMILES.

As a reminder, the IC50 is the concentration that gives 50% inhibition. A high value points to weaker potency in that assay.

Sequence of USP1 (construct USP1 (I-785, GG670, 671AA)/UAF1 (I-677)-Flag) (O94782 whole entry G670A/G671A): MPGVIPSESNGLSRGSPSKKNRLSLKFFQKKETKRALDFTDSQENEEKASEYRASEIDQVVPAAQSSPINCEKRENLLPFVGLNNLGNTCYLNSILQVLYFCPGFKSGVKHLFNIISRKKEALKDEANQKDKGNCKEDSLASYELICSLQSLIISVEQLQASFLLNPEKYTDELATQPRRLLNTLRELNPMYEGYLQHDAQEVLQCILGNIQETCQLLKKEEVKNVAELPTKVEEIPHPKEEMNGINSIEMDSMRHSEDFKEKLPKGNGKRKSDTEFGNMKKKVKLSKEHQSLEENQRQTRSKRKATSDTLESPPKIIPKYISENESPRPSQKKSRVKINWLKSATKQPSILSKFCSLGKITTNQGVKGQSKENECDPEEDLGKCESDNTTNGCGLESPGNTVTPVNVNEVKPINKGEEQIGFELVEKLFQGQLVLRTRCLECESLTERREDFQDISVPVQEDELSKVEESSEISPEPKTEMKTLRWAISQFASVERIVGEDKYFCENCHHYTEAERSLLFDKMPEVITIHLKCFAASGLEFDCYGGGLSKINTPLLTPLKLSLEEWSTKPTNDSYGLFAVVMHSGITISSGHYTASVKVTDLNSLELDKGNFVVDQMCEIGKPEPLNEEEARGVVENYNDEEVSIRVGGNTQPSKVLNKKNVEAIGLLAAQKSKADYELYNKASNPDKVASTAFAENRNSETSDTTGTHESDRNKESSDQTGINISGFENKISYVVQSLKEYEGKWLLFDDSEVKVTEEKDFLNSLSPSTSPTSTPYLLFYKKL
Sequence of USP1 (construct USP1 (I-785, GG670, 671AA)/UAF1 (I-677)-Flag) (Q8TAF3 whole entry partner): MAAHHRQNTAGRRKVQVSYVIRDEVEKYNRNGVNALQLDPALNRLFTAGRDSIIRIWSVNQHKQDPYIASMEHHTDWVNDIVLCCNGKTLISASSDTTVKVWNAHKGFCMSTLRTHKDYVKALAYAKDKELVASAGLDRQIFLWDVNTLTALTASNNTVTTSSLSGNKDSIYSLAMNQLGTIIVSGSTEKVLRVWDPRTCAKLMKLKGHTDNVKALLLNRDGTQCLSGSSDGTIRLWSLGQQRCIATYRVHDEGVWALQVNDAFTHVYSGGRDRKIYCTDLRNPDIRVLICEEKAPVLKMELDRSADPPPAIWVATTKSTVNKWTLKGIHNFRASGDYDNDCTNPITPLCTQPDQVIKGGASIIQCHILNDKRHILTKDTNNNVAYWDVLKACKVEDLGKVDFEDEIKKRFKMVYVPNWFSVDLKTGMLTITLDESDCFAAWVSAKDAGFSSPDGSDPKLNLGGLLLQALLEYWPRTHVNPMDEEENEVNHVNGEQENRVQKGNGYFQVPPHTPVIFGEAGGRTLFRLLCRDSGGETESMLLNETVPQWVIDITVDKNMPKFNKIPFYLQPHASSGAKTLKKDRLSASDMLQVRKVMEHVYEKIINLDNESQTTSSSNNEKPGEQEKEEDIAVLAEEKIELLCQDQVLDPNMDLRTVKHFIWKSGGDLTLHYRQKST

The target in the experiment is USP1 (construct USP1 (I-785, GG670, 671AA)/UAF1 (I-677)-Flag) (Homo sapiens (Human), UniProt O94782, G670A/G671A). Kind of experiment: Ubiquitin-Rhodamine 110 assay for USP1 activity. The format is biochemical. Conditions: USP1/UAF1 25 pM, Ub-Rh110 25 nM, 30 min preincubation. In short, it runs like this:
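Two formats with the USP1/UAF1 complex and 25 nM ubiquitin-rhodamine 110 in pH 8.0 Tris buffer with calcium, glutathione and detergent. Single-point screening used 10 µM, 100 pM enzyme and 45 min. Inhibition was set against no-enzyme and DMSO wells.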
`CC(C)c1ccccc1-c1ncc2[nH]c(=O)n(Cc3ccc(-c4nc(C(F)(F)F)nn4C)cc3)c2n1` [Compound I-209, 2-(2-isopropylphenyl)-9-(4-(1-methyl-3-(trifluoromethyl)-1H-1,2,4-triazol-5-yl)benzyl)-7,9-dihydro-8H-purin-8-one] yielded an IC50 of less than 0.05 µM. The figure for `Cc1noc(C)c1-c1ccc(Cn2c(=O)[nH]c3cnc(-c4ccccc4C(C)C)nc32)cc1` [Compound I-253, 9-(4-(3,5-dimethylisoxazol-4-yl)benzyl)-2-(2-isopropylphenyl)-7,9-dihydro-8H-purin-8-one] is 0.2 to 2 µM; for `Cc1nc(N2CCC(F)(Cn3c(=O)[nH]c4cnc(-c5ccccc5C(C)C)nc43)CC2)c(C)s1` [Compound I-514, 9-((1-(2,5-Dimethylthiazol-4-yl)-4-fluoropiperidin-4-yl)methyl)-2-(2-isopropylphenyl)-7,9-dihydro-8H-purin-8-one] it is less than 0.05 µM. As for `CC(C)c1ccccc1-c1ncc2c(n1)n(Cc1ccc(N(C)S(=O)(=O)c3ccn(C)n3)cc1)c(=O)n2C` [Compound I-456, N-(4-((2-(2-isopropylphenyl)-7-methyl-8-oxo-7,8-dihydro-9H-purin-9-yl)methyl)phenyl)-N,1-dimethyl-1H-pyrazole-3-sulfonamide], the IC50 lay within 0.05 to 0.2 µM. The figure for `CCCN(C)C(=O)c1ccc(Cn2c(=O)[nH]c3cnc(-c4ccccc4C(C)C)nc32)cc1` [Compound I-374, 4-((2-(2-isopropylphenyl)-8-oxo-7,8-dihydro-9H-purin-9-yl)methyl)-N-methyl-N-propylbenzamide] is less than 0.05 µM; for `Cc1cc(C(F)(F)F)nn1-c1ccc(Cn2c(=O)n(C)c3cnc(-c4cccnc4C(C)C)nc32)cc1` [Compound I-113, 2-(2-isopropylpyridin-3-yl)-7-methyl-9-(4-(5-methyl-3-(trifluoromethyl)-1H-pyrazol-1-yl)benzyl)-7,9-dihydro-8H-purin-8-one] it is less than 0.05 µM. Then `Cc1nc(-c2ccc(Cn3c(=O)n(C)c4cnc(-c5ccccc5C(C)C)nc43)cc2)cn1C` [Compound I-276, 9-(4-(1,2-dimethyl-1H-imidazol-4-yl)benzyl)-2-(2-isopropylphenyl)-7-methyl-7,9-dihydro-8H-purin-8-one], with less than 0.05 µM; and `CCn1ccnc1-c1ccc(Cn2c(=O)n(C)c3cnc(-c4ccccc4C(C)C)nc32)cc1` [Compound I-496, 9-(4-(1-ethyl-1H-imidazol-2-yl)benzyl)-2-(2-isopropylphenyl)-7-methyl-7,9-dihydro-8H-purin-8-one], with less than 0.05 µM; and `CC(C)c1ccccc1-c1ncc2[nH]c(=O)n(Cc3ccc(-n4cc(CS(C)(=O)=O)nn4)cc3)c2n1` [Compound I-350, 2-(2-isopropylphenyl)-9-(4-(4-((methylsulfonyl)methyl)-1H-1,2,3-triazol-1-yl)benzyl)-7,9-dihydro-8H-purin-8-one], with more than 2 µM. Turning to `CC(C)c1ccccc1-c1ncc2[nH]c(=O)n(Cc3ccc(-c4ccnn4C(C)C)cc3)c2n1` [Compound I-299, 9-(4-(1-isopropyl-1H-pyrazol-5-yl)benzyl)-2-(2-isopropylphenyl)-7,9-dihydro-8H-purin-8-one], the concentration for half-maximal inhibition (IC50) lay in the range of 0.05 to 0.2 µM. Compound `CC(C)c1ccccc1-c1ncc2c(n1)n(Cc1ccc(-c3nc(N4CCOCC4)n(C)n3)cc1)c(=O)n2C` [Compound I-282, 2-(2-isopropylphenyl)-7-methyl-9-(4-(1-methyl-5-morpholino-1H-1,2,4-triazol-3-yl)benzyl)-7,9-dihydro-8H-purin-8-one] gave an IC50 of 0.05 to 0.2 µM.

As for `Cn1cc(C(F)(F)F)nc1-c1ccc(Cn2c(=O)n(C)c3cnc(-c4cccnc4N4CC(F)(F)C4)nc32)cc1` [Compound I-135, 2-(2-(3,3-difluoroazetidin-1-yl)pyridin-3-yl)-7-methyl-9-(4-(1-methyl-4-(trifluoromethyl)-1H-imidazol-2-yl)benzyl)-7,9-dihydro-8H-purin-8-one], the IC50 was 0.05 to 0.2 µM. Then `CC(C)c1ccccc1-c1ncc2c(n1)n(Cc1ccc(-c3cncn3C)cc1)c(=O)n2C` [Compound I-264, 2-(2-isopropylphenyl)-7-methyl-9-(4-(1-methyl-1H-imidazol-5-yl)benzyl)-7,9-dihydro-8H-purin-8-one], with 0.05 to 0.2 µM; and `Cn1cc(C(F)(F)F)nc1-c1ccc(Cn2c(=O)[nH]c3cnc(-c4ccccc4OC(F)(F)F)nc32)cc1` [Compound I-37, 9-(4-(1-methyl-4-(trifluoromethyl)-1H-imidazol-2-yl)benzyl)-2-(2-(trifluoromethoxy)phenyl)-7,9-dihydro-8H-purin-8-one], with less than 0.05 µM; and `COc1cc(C(F)(F)F)nn1-c1ccc(Cn2c(=O)[nH]c3cnc(-c4cccnc4C(C)C)nc32)cc1` [Compound I-60, 2-(2-isopropylpyridin-3-yl)-9-(4-(5-methoxy-3-(trifluoromethyl)-1H-pyrazol-1-yl)benzyl)-7,9-dihydro-8H-purin-8-one], with less than 0.05 µM. `CC(C)c1ccccc1-c1ncc2[nH]c(=O)n(Cc3ccc4c(c3)CN(C)C4=O)c2n1` [Compound I-186, 2-(2-isopropylphenyl)-9-((2-methyl-1-oxoisoindolin-5-yl)methyl)-7,9-dihydro-8H-purin-8-one]: the IC50 was 0.05 to 0.2 µM. For the compound `CC(C)c1ccccc1-c1ncc2c(n1)n(Cc1ccc(-c3cn(C(C)C)cn3)cc1)c(=O)n2C` [Compound I-277, 9-(4-(1-isopropyl-1H-imidazol-4-yl)benzyl)-2-(2-isopropylphenyl)-7-methyl-7,9-dihydro-8H-purin-8-one], the IC50 was less than 0.05 µM. Compound `COCC1CCCN(C(=O)c2ccc(Cn3c(=O)[nH]c4cnc(-c5ccccc5C(C)C)nc43)cc2)C1` (stereo not shown) [Compound I-368, 2-(2-isopropylphenyl)-9-(4-(3-(methoxymethyl)piperidine-1-carbonyl)benzyl)-7,9-dihydro-8H-purin-8-one] registered an IC50 of 0.05 to 0.2 µM. The figure for `CC(=O)N1CC(n2cc(C(F)(F)F)nc2-c2ccc(Cn3c(=O)[nH]c4cnc(-c5ccccc5C(C)C)nc43)cc2)C1` [Compound I-476, 9-(4-(1-(1-acetylazetidin-3-yl)-4-(trifluoromethyl)-1H-imidazol-2-yl)benzyl)-2-(2-isopropylphenyl)-7,9-dihydro-8H-purin-8-one] is less than 0.05 µM; for `CC(C)NC(=O)N1CCC(F)(Cn2c(=O)[nH]c3cnc(-c4ccccc4C(C)C)nc32)CC1` [Compound I-487, 4-fluoro-N-isopropyl-4-((2-(2-isopropylphenyl)-8-oxo-7,8-dihydro-9H-purin-9-yl)methyl)piperidine-1-carboxamide] it is more than 2 µM. Compound `CC(C)c1ccccc1-c1ncc2c(n1)n(Cc1cccc(OCC3CCOC3)c1)c(=O)n2C` (stereo not shown) [Compound I-240, 2-(2-isopropylphenyl)-7-methyl-9-(3-((tetrahydrofuran-3-yl)methoxy)benzyl)-7,9-dihydro-8H-purin-8-one] gave an IC50 of 0.2 to 2 µM. The figure for `O=c1[nH]c2cnc(-c3cccnc3OC(F)F)nc2n1Cc1ccc(-n2nccn2)cc1` [Compound I-4, 9-(4-(2H-1,2,3-triazol-2-yl)benzyl)-2-(2-(difluoromethoxy)pyridin-3-yl)-7,9-dihydro-8H-purin-8-one] is more than 2 µM; for `CC(C)c1ccccc1-c1ncc2[nH]c(=O)n([C@H](CO)c3ccccc3)c2n1` [Compound I-181, (S)-9-(2-hydroxy-1-phenylethyl)-2-(2-isopropylphenyl)-7,9-dihydro-8H-purin-8-one] it is 0.2 to 2 µM. Then `Cn1cc(C(F)(F)F)nc1-c1ccc(Cn2c(=O)[nH]c3cnc(-c4cccnc4F)nc32)cc1` [Compound I-57, 2-(2-fluoropyridin-3-yl)-9-(4-(1-methyl-4-(trifluoromethyl)-1H-imidazol-2-yl)benzyl)-7,9-dihydro-8H-purin-8-one], with 0.2 to 2 µM; and `CC(=O)N1CCC(c2ccn(-c3ccc(Cn4c(=O)[nH]c5cnc(-c6cccnc6OCC(F)(F)F)nc54)cc3)n2)CC1` [Compound I-466, 9-(4-(3-(1-acetylpiperidin-4-yl)-1H-pyrazol-1-yl)benzyl)-2-(2-(2,2,2-trifluoroethoxy)pyridin-3-yl)-7,9-dihydro-8H-purin-8-one], with 0.2 to 2 µM; and `CC(C)c1ccccc1-c1ncc2[nH]c(=O)n(Cc3ccc(S(C)(=O)=O)cc3)c2n1` [Compound I-183, 2-(2-isopropylphenyl)-9-(4-(methylsulfonyl)benzyl)-7,9-dihydro-8H-purin-8-one], with more than 2 µM.

For `COC(=O)N1CCC(c2ccn(-c3ccc(Cn4c(=O)[nH]c5cnc(-c6ccccc6C(C)C)nc54)cc3)n2)CC1` [Compound I-543, Methyl 4-(1-(4-((2-(2-isopropylphenyl)-8-oxo-7,8-dihydro-9H-purin-9-yl)methyl)phenyl)-1H-pyrazol-3-yl)piperidine-1-carboxylate], the IC50 is less than 0.05 µM. The figure for `CC(C)c1c(F)cccc1-c1ncc2[nH]c(=O)n(Cc3ccc(-n4ccc(C5CCNCC5)n4)cc3)c2n1` [Compound I-434, 2-(3-fluoro-2-isopropylphenyl)-9-(4-(3-(piperidin-4-yl)-1H-pyrazol-1-yl)benzyl)-7,9-dihydro-8H-purin-8-one] is 0.05 to 0.2 µM. As to `O=c1[nH]c2cnc(-c3ccccc3OCC(F)(F)F)nc2n1Cc1ccc(-n2cccn2)cc1` [Compound I-22, 9-(4-(1H-pyrazol-1-yl)benzyl)-2-(2-(2,2,2-trifluoroethoxy)phenyl)-7,9-dihydro-8H-purin-8-one], the IC50 was in the range of 0.2 to 2 µM.

The compound `COCCNc1ccc(Cn2c(=O)n(C)c3cnc(-c4ccccc4C(C)C)nc32)cc1` [Compound I-489, 2-(2-isopropylphenyl)-9-(4-((2-methoxyethyl)amino)benzyl)-7-methyl-7,9-dihydro-8H-purin-8-one] had an IC50 of 0.05 to 0.2 µM.

In the case of `Cn1cc(C(F)(F)F)nc1-c1ccc(Cn2c(=O)[nH]c3cnc(-c4cccnc4OCC4CC4)nc32)cc1` [Compound I-414, 2-(2-(cyclopropylmethoxy)pyridin-3-yl)-9-(4-(1-methyl-4-(trifluoromethyl)-1H-imidazol-2-yl)benzyl)-7,9-dihydro-8H-purin-8-one], the IC50 is less than 0.05 µM.
